Laboratory results taken from ChEMBL document CHEMBL1811817, “Molecular docking studies and in vitro screening of new dihydropyridine derivatives as human MRP1 inhibitors” (Bioorg Med Chem, 2011).

What was measured:
[1] = molecular target: T1, Multidrug resistance-associated protein 1 (Homo sapiens, UniProt P33527); assay: Inhibition of vanadate-sensitive ATPase basal activity of human MRP1 expressed in Sf9 cells assessed as generation of inorganic phosphate at 10 uM by spectrophotometry in presence of glutathione; conditions: sf9, 10 µM
MRP1 [2] = molecular target: T2, MRP1 (Homo sapiens, UniProt P33527); assay: Inhibition of human MRP1 expressed in Spodoptera frugiperda Sf9 cells assessed as decrease in NEM-GS induced vanadate-sensitive ATPase activity measured by generation of inorganic phosphate at 30 uM by spectrophotometry in presence of glutathione; conditions: Spodoptera frugiperda Sf9 cells expressing human MRP1, probe NEM-GS
[3] = molecular target: T1, Multidrug resistance-associated protein 1; assay: Inhibition of human MRP1 expressed in Spodoptera frugiperda Sf9 cells assessed as inhibition of NEM-GS-induced vanadate-sensitive ATPase activity measured by generation of inorganic phosphate by spectrophotometry in presence of glutathione
MRP1 [4] = molecular target: T2, MRP1; assay: Inhibition of human MRP1 expressed in Spodoptera frugiperda Sf9 cells assessed as decrease in NEM-GS induced vanadate-sensitive ATPase activity measured by generation of inorganic phosphate at 100 uM by spectrophotometry in presence of glutathione; conditions: Spodoptera frugiperda Sf9 cells expressing human MRP1, probe NEM-GS

T1 sequence (P33527 whole entry): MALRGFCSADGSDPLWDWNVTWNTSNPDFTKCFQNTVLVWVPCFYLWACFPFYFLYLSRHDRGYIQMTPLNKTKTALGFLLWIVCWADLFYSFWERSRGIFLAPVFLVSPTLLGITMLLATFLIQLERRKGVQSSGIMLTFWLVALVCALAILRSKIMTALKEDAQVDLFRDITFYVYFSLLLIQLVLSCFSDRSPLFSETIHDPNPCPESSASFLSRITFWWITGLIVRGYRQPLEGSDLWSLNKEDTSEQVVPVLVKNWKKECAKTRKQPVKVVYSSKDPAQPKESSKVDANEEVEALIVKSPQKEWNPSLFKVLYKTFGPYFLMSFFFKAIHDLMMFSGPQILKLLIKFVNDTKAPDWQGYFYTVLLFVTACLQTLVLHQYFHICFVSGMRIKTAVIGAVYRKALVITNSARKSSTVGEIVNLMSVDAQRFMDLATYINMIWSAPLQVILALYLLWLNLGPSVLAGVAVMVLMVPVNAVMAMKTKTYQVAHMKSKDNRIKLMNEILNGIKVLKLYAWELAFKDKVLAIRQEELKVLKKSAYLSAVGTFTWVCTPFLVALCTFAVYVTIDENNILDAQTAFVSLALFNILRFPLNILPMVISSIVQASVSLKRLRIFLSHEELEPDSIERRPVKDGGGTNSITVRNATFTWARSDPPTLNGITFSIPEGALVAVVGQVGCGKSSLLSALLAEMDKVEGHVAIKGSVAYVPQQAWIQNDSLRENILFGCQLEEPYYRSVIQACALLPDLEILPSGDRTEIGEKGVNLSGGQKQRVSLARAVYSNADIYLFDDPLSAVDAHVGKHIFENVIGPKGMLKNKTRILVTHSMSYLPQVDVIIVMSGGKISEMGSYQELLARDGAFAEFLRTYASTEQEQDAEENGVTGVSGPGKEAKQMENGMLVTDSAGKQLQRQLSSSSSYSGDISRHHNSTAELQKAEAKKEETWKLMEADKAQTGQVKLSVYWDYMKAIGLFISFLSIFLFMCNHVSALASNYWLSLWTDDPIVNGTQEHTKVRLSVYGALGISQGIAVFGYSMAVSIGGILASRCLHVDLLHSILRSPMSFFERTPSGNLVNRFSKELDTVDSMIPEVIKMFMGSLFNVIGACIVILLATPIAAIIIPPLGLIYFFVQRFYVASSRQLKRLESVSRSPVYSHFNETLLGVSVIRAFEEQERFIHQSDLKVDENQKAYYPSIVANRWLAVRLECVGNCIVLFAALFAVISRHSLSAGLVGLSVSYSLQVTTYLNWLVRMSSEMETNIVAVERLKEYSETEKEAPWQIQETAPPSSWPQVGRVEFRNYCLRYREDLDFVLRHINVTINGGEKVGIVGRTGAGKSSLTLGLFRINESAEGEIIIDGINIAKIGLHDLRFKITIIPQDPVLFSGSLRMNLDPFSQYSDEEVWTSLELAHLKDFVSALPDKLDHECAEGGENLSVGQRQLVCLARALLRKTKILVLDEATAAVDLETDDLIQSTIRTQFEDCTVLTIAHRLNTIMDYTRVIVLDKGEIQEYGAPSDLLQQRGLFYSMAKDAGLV
T2 sequence (P33527 whole entry): as above

| SMILES | inhibition (INH) [3] | also measured |
| --- | --- | --- |
| CC1=C(C(=O)Nc2ccccc2)C(c2ccco2)C(C(=O)Nc2ccccc2)=C(C)N1 |  | inhibition (INH) [1]: Active; inhibition at 30 µM (MRP1 [2]): 52.8% |
| CC1=C(C(=O)Nc2ccccc2)C(c2ccccn2)C(C(=O)Nc2ccccc2)=C(C)N1 | Not Active |  |
| CC1=C(C(=O)Nc2ccccc2)C(c2cccs2)C(C(=O)Nc2ccccc2)=C(C)N1 | Not Active |  |
| CC1=C(C(=O)Nc2ccccc2)C(c2ncc[nH]2)C(C(=O)Nc2ccccc2)=C(C)N1 | Not Active |  |
| CC1=C(C(=O)Nc2ccccc2)C(c2ccc[nH]2)C(C(=O)Nc2ccccc2)=C(C)N1 | Not Active |  |
| CC1=C(C(=O)Nc2ccccc2)C(c2ccc(Cl)cc2)C(C(=O)Nc2ccccc2)=C(C)N1 | Not Active |  |
| CC1=C(C(=O)Nc2ccccn2)C(c2ccco2)C(C(=O)Nc2ccccn2)=C(C)N1 | Not Active |  |
| CC1=C(C(=O)Nc2ccccn2)C(c2ncc[nH]2)C(C(=O)Nc2ccccn2)=C(C)N1 | Not Active |  |
| CC1=C(C(=O)Nc2ccccn2)C(c2ccc[nH]2)C(C(=O)Nc2ccccn2)=C(C)N1 |  | inhibition (INH) [1]: Active; inhibition at 30 µM (MRP1 [2]): 69.8%; inhibition at 100 µM (MRP1 [4]): 78% |
| CC1=C(C(=O)Nc2ccc(C)cc2)C(c2ncc[nH]2)C(C(=O)Nc2ccc(C)cc2)=C(C)N1 | Not Active |  |
